Data set [1] has as its system mouse melanoma B16–F10 cell line. Also noted: method as in PMID 21783370. To be noted: cited from earlier work.
Data set [2] deals with human breast cancer MCF-7 cells. Also noted: method as in PMID 30389289. To be noted: cited from earlier work.
Data set [3] deals with MCF-7 cells. Nature of the data set: MTT assay. It is filed as cell-based, human. The conditions noted are these: for IC50: Homo sapiens, MCF7, MCF-7, MTT, 24 h treatment, read-out: IC50; for Selectivity index (SI): IC50 HEK-293 / IC50 MCF-7.
In data set [4] the test system is clinical methicillin-resistant S. aureus (MRSA) strains. The data set can be described thus: MIC on clinical MRSA strains. It is filed as cell-based. To be noted: Staphylococcus aureus, MRSA / VISA; strains MRSA12673, MRSA21804, MRSA18532, MRSA12647 and MRSAN315 VISA. The text has this:
In the next step, we evaluated the compounds on clinical methicillin-resistant S. aureus (MRSA) strains (Figure 2) and methicillin-resistant coagulase-negative Staphylococcus (MRCNS) (Figure 3). The group of CNS includes nonpathogenic or opportunistic pathogens, while coagulase-positive staphylococci are represented by S. aureus. About 30% of the human population carries S. aureus in the upper respiratory tract. Infections caused by S. aureus include all purulent skin conditions (boils, abscesses, folliculitis) and nosocomial infections. The strains isolated from hospitals are usually antibiotic-resistant, where MRSA strains are the majority. Staphylococcus epidermidis (like other coagulase-negative Staphylococcus) is included in the microflora of human skin and can easily cause surface contamination after surgical procedures.
Sterile sheep blood defibrinated (GrasoBiotech). Co-trimoxazole (composition sulfamethoxazole 400 mg/trimethoprim 80 mg; WZF Polfa Poland). Ketoconazole (WZF Polfa Poland). Bacteria: Enterococcus hirae ATCC 10541 and Enterococcus faecalis ATCC 51299, Staphylococcus epidermidis ATCC 14990, Staphylococcus aureus ATCC 6538, clinical strains Staphylococcus aureus MRSA, clinical strains Staphylococcus sp. […]

Data set [5] can be described thus: ABTS assay. To be noted: ABTS radical scavenging; 10 min, 30 °C.
Data set [6] deals with E. faecalis ATCC 51299. The data set can be described thus: MIC determination, reference strain (microdilution). The data set is classed as cell-based. The conditions noted are these: Enterococcus faecalis, ATCC51299; E. faecalis ATCC 51299; Co-trimoxazole as sulfamethoxazole/trimethoprim; read-out: MIC.
Data set [7] deals with HeLa cells. The data set can be described thus: MTT assay. The data set is classed as cell-based, human. The conditions noted are these: for IC50: HeLa, MTT, 24 h treatment; for Selectivity index (SI): IC50 HEK-293 / IC50 HeLa.
Data set [8] concerns S. epidermidis ATCC 14990. Nature of the data set: MIC determination, reference strain (microdilution). It is filed as cell-based. To be noted: Staphylococcus epidermidis, ATCC14990; S. epidermidis ATCC 14990; Co-trimoxazole as sulfamethoxazole/trimethoprim; read-out: MIC.
The subject of data set [9] is Staphylococcus sp. and Enterococcus sp. Nature of the data set: MIC, summary statements on reference Gram-positive cocci. The data set is classed as cell-based. The conditions noted are these: Staphylococcus and Enterococcus species, reference Gram-positive cocci (range over strains). The protocol: Sterile sheep blood defibrinated (GrasoBiotech). Co-trimoxazole (composition sulfamethoxazole 400 mg/trimethoprim 80 mg; WZF Polfa Poland). Ketoconazole (WZF Polfa Poland). Bacteria: Enterococcus hirae ATCC 10541 and Enterococcus faecalis ATCC 51299, Staphylococcus epidermidis ATCC 14990, Staphylococcus aureus ATCC 6538, clinical strains Staphylococcus aureus MRSA, clinical strains Staphylococcus sp. (MRCNS), clinical strain Staphylococcus epidermidis MRSE, clinical strain Enterococcus sp., Corynebacterium diphtheriae ZMF, Bacillus subtilis ATCC 6633, Escherichia coli ATCC 8739, Candida albicans ATCC 10231. Brain-heart infusion broth (BHI, Becton Dickinson) for Enterococcus hirae ATCC 10541 and Enterococcus faecalis ATCC 51299, BHI supplement with 10% bovine serum for Bacillus subtilis, Corynebacterium diphtheriae ZMF, Staphylococcus epidermidis ATCC 14990, Staphylococcus aureus ATCC 6538, clinical strains Staphylococcus aureus MRSA, clinical strains Staphylococcus sp. (CNS), clinical strain Staphylococcus epidermidis MRSE grew in Mueller-Hinton broth (MH cation-adjusted, Becton Dickinson) in an aerobic atmosphere at 37 °C for 48 h, in an aerobic atmosphere at 37 °C for 72 h. Candida albicans grew in Sabourauda broth (Sb, Becton Dickinson), in an aerobic atmosphere at 37 °C for 72 h. After determination of the bacterial viability, BHI blood agar plates, MH agar plates, and Sb agar plates were used.
The MIC determination for the reference and clinical strains was performed based on the methodology described by Kula et al.. The dry test samples were dissolved in dimethyl sulfoxide (DMSO) and diluted in water, resulting in a finale concentration of about 500 µg/mL. These solutions were diluted and added to the first well of each microtiter line. Dilution in geometric progression was done by transferring the mixture/dilution (100 μL) from the first to the twelfth well. An aliquot (100 μL) was discarded from the twelfth well. The final concentration of the samples used in the antimicrobial activity assay ranged from 125 to 0.006 µg/mL. Co-trimoxazole (for bacteria), with the composition sulfamethoxazole 400 mg/trimethoprim 80 mg was used as a reference compound in the concentration range of 20 000/4000 to 1/0.2 µg/mL. Ketoconazole (for fungi) was used as a reference compound in the concentration range of 125 to 0.006 µg/mL. Tests were incubated in adequate conditions described by Kula et al.. Diluent concentration had no effect on the activity of the tested compounds. All experiments were carried out three times.

For data set [10], the system named is E. hirae ATCC 10541. Nature of the data set: MIC determination, reference strain (microdilution). It is filed as cell-based. The conditions noted are these: Enterococcus hirae, ATCC10541; E. hirae ATCC 10541; Co-trimoxazole as sulfamethoxazole/trimethoprim; read-out: MIC.
A short description of data set [11]: DPPH assay. The conditions noted are these: DPPH radical scavenging; 40 min, room temperature. Put shortly: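 Samples in methanol/DMSO (9/1 v/v) mixed with 0.06 mM methanolic DPPH (170 µL in 300 µL final), kept 40 min at room temperature in the dark. Absorbance at 510 nm; inhibition % relative to solvent control, IC50 derived from concentration series. Three runs in triplicate (n = 9).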

The subject of data set [12] is cancer cells (HeLa, SKOV-3, MCF-7). The data set can be described thus: MTT assay, summary statements on the cancer cells. It is filed as cell-based. The conditions noted are these: Homo sapiens, cell line not specified.
Data set [13] relates to SKOV-3 cells. The data set can be described thus: MTT assay. The conditions noted are these: for IC50: Homo sapiens, SK-OV-3, SKOV-3, MTT, 24 h treatment, read-out: IC50; for Selectivity index (SI): IC50 HEK-293 / IC50 SKOV-3. The data set is classed as cell-based, human.
In data set [14] the test system is B. subtilis ATCC 6633. The data set can be described thus: MIC determination, reference strain (microdilution). To be noted: Bacillus subtilis, ATCC6633; B. subtilis ATCC 6633; Co-trimoxazole as sulfamethoxazole/trimethoprim; read-out: MIC. It is filed as cell-based.
Data set [15] deals with S. aureus ATCC 6538. Described as above. The data set is classed as cell-based. The conditions noted are these: Staphylococcus aureus, ATCC6538; S. aureus ATCC 6538; ± SD; Co-trimoxazole as sulfamethoxazole/trimethoprim; read-out: MIC.
In data set [16] the test system is C. albicans ATCC 10231. Nature of the data set: MIC determination, reference fungal strain (microdilution). It is filed as cell-based. The conditions noted are these: Candida albicans, ATCC10231; C. albicans ATCC 10231; read-out: MIC.
In data set [17] the test system is E. coli ATCC 8739. The data set can be described thus: MIC determination, reference strain (microdilution). It is filed as cell-based. The conditions noted are these: Escherichia coli, ATCC8739; E. coli ATCC 8739; Co-trimoxazole as sulfamethoxazole/trimethoprim; read-out: MIC.
Data set [18] deals with HEK-293 cells. The data set can be described thus: MTT assay, noncancerous cells. It is filed as cell-based. To be noted: Homo sapiens, HEK293; HEK-293; MTT, 24 h treatment; read-out: IC50.
In data set [19] the test system is C. diphtheriae. Nature of the data set: MIC determination, reference strain (microdilution). It is filed as cell-based. To be noted: Corynebacterium diphtheriae; C. diphtheriae; Co-trimoxazole as sulfamethoxazole/trimethoprim; read-out: MIC.
Data set [20] concerns clinical strains of Enterococcus sp. The data set can be described thus: MIC on clinical Enterococcus strains. The data set is classed as cell-based.
A short description of data set [21]: in vitro. The conditions noted are these: sheep, defibrinated sheep blood diluted 1:9 v/v with PBS, pH 7.
Data set [22] relates to quorum sensing system of C. violaceum. Also on record: method as in doi:10.1016/j.ibiod.2018.06.003. The conditions noted are these: at 1 mM; cited from earlier work.
For data set [23], the system named is E. coli. Also noted: method as in PMID 19231901. The conditions noted are these: cited from earlier work.
In data set [24] the test system is S. aureus. Also on record: method as in PMID 19231901. To be noted: cited from earlier work.
[25] abbreviates: Homo sapiens, 24 h, read-out: IC50.

Each structure is given as a SMILES string. ≈ marks a conversion by molar mass, not a printed value. Like-named read-outs stand apart in the source and are kept apart here.

Regarding `O=C(/C=C/c1ccc(Br)cc1)NS(=O)(=O)c1ccc(F)cc1` [(E)–3–(4–bromophenyl)–N–(4–fluorophenylsulfonyl)acrylamide], the IC50 in [1] is listed as 1.2 µg/mL (≈ 3.12 µM).
Consider `O=C(/C=C/c1ccc(F)cc1)NS(=O)(=O)c1ccc(F)cc1` [(E)–3–(4–fluorophenyl)–N–(4-fluorophenylsulfonyl)acrylamide], for which, in data set [1], the IC50 is 0.8 µg/mL (≈ 2.47 µM).
On to `O=C(/C=C/c1ccc2c(c1)OCO2)NS(=O)(=O)c1ccccc1` [(E)–3–(benzo[d][1,3]dioxol–5–yl)–N–(phenylsulfonyl)acrylamide], for which, in [2], the 50% inhibitory concentration (IC50) is recorded as 0.17 µg/mL (≈ 0.513 µM).
Regarding `Cc1cc(S(=O)(=O)NC(=O)/C=C/c2ccc(Br)cc2)c(SCc2cc3c(cc2Cl)OCO3)cc1Cl` [Compound 17a, (E)-3-(4-Bromophenyl)-N-{4-chloro-2-[(6-chlorobenzo[d][1,3]dioxol-5-yl)methylthio]-5-methylphenylsulfonyl}acrylamide], the concentration for half-maximal inhibition (IC50) is 13 ± 0.66 µg/mL (≈ 21.1 µM) in data set [3]; 8.49 ± 0.49 µg/mL (≈ 13.8 µM) in data set [7]; below 10 µg/mL in data set [7] (setting [25]); below 10 µg/mL in data set [12] (MTT); at most 20 µM in [12] (µg/mL bound converted); 13.15 ± 0.05 µg/mL (≈ 21.4 µM) in data set [13]. Moreover, the IC50 in [18] stood at 6.49 ± 0.46 µg/mL (≈ 10.5 µM). The “Selectivity index (SI)” value in [3] is given as 0.5; in data set [7], 0.8; in data set [13], 0.5. The minimum inhibitory concentration (MIC) in data set [4] was 8 to 16 µg/mL (≈ 13 to 26 µM); in [6], 2 ± 0.58 µg/mL (≈ 3.25 µM); in data set [8], 1 ± 0.58 µg/mL (≈ 1.63 µM); in data set [9], 1 to 2 µg/mL (≈ 1.63 to 3.25 µM); in [10] it was 2 ± 0.58 µg/mL (≈ 3.25 µM); in [14] it was 62.5 ± 0.29 µg/mL (≈ 102 µM). The MIC in [15] was 1 ± 0.29 µg/mL (≈ 1.63 µM); in data set [16] it was above 125 µg/mL; in data set [17] it was above 125 µg/mL; in [19] it was above 125 µg/mL. In addition, in [5], the “IC50 ABTS” value is listed as 569.99 ± 7.9 µg/mL (≈ 926 µM). Also, the “IC50 DPPH” value in [11] is on record as 790.52 ± 1.44 µg/mL (≈ 1280 µM).
Consider `Cc1cc(S(=O)(=O)NC(=O)/C=C/c2ccc(F)cc2)c(SCc2cc3c(cc2Cl)OCO3)cc1Cl` [Compound 17b, (E)–N–{4–Chloro–2–[(6–chlorobenzo[d][1,3]dioxol–5–yl)methylthio]–5–methylphenylsulfonyl}–3–(4–fluorophenyl)acrylamide], for which the IC50 in data set [3] came out at 14.8 ± 0.66 µg/mL (≈ 26.7 µM); in data set [7] (setting [25]) it was 12 ± 0.44 µg/mL (≈ 21.6 µM); in [13], 11 ± 0.5 µg/mL (≈ 19.8 µM); in [18] it was 7.17 ± 0.44 µg/mL (≈ 12.9 µM). The “Selectivity index (SI)” value was found to be 0.5 in data set [3], 0.6 in data set [7] and 0.6 in [13]. The minimal inhibitory concentration (MIC) in [4] was above 125 µg/mL; in [6], 4 ± 0.15 µg/mL (≈ 7.21 µM); in data set [8] it was 2 ± 0.58 µg/mL (≈ 3.61 µM); in data set [10], 4 ± 0.15 µg/mL (≈ 7.21 µM); in data set [20] (Enteroccoccus sp. 3934825) it was above 125 µg/mL; in [20] (Enterococcus sp. 12848), above 125 µg/mL. The minimal inhibitory concentration (MIC) in data set [20] (Enterococcus sp. 3937152, read-out: MIC) is above 125 µg/mL; in data set [14], 62.5 ± 0.29 µg/mL (≈ 113 µM); in data set [15] it was 2 ± 0.29 µg/mL (≈ 3.61 µM); in data set [16] it was above 125 µg/mL; in data set [17], above 125 µg/mL; in data set [19] it was above 125 µg/mL. In data set [5], the “IC50 ABTS” value was 620.39 ± 1.29 µg/mL (≈ 1120 µM). Besides, the “IC50 DPPH” value in data set [11] came to 652.93 ± 2.39 µg/mL (≈ 1180 µM). The compound also registered a hemolysis at 24 h, 62.5 µg/mL in [21] of 9%.
As to `COC(=O)/C=C/c1ccccc1` [methyl trans-cinnamate], in data set [22], the Quorum sensing inhibition entry is given as “completely inhibit”. Also, the “Concentration that completely inhibited growth” value was 6.2 mM in [23] and 3.1 mM in [24].

(Values after article PMC10096175, “An In Vitro Antimicrobial, Anticancer and Antioxidant Activity of N–[(2–Arylmethylthio)phenylsulfonyl]cinnamamide Derivatives” (Molecules, 2023).)
